What was measured:
USP9X/USP24 chimera Δβ = target: T1, USP9X/USP24 chimera Δβ (Homo sapiens, UniProt Q93008, A1766S/D1761E/DEL1924-1943/K1759R/L1762V/Y1757F); assay: Ub-Rho cleavage assay, USP9X/USP24 chimera Δβ; type: biochemical
T1 construct: His/SUMO (pOPIN-S vector) (N, cleaved yes); made in house; host or cells: E. coli BL21
Excerpt: An expression construct for the USP9X catalytic domain (aa 1551–1970, […]: Q93008-1), was codon optimised for bacterial expression, synthesised in gBlock format (Integrated DNA Technologies) and cloned into the pOPIN-S vector (Berrow et al, [2007]), which was digested with KpnI and HindIII using In-Fusion™ HD cloning (Takara Clontech). […] For the USP9X Δβ catalytic domain a deletion construct ΔE1924-K1943 and for USP9X/USP24 chimera, a construct with USP9X Y1757-A1766 replaced with the USP24 (NCBI Reference Sequence: NP_056121) aa motif […] was used. All constructs were confirmed by Sanger sequencing (AGRF).
The reaction was stopped through the addition of 10 mM citric acid. The assay was performed in 384-well format with a total reaction volume of 16 µL. Data was collected using the ClarioSTAR plate reader (BMG Labtech) at an emission of 535 nm. […] IC50 values presented in our study are the mean of three independent biological repeats unless indicated otherwise.

USP24 = test system: T2, USP24; assay: DUB IP-MS in MCF-7 cell lysates, USP24; type: biochemical, human; settings: 50 µM
T2 construct: endogenous in cells; host or cells: MCF-7 cell lysate
Protocol: MCF-7 cells have been profiled for active DUBs previously (Pinto-Fernández et al, [2019]). Lysates were generated as described by others (Turnbull et al, [2017]) using 30 s freeze-thaw cycles (thrice) in lysis buffer (50 mM Tris [pH 7.4], 5 mM MgCl2 × 6 H2O, 0.5 mM EDTA [pH 8.0], 250 mM sucrose and 1 mM DTT) at pH 7.5. […] A pre-treatment of cell lysates with 0.5 µg Ub-VS was included for a baseline DUB response to the Ub-VS probe. 0.1 µg 3X-FLAG-Ub-VS probe was added to samples and incubated for 5 min at 37 °C. […] Samples were washed thrice with lysis buffer and eluted from the resin with lysis buffer supplemented with 1% (w/v) SDS following a 10 min incubation. Two consecutive elutions were pooled, and samples were stored at −80 °C until processing.
DNA was hydrolysed with the addition of 2 µL neat TFA, and lysates were neutralised to pH 8.5 by the addition of 1 M Tris-HCl as previously described (Dagley et al, [2019]). Protein concentration was determined using Pierce™ BCA Protein Assay Kit (Thermo Fisher Scientific) following the manufacturer’s instructions. For DUB IP-MS, samples were processed using S-Trap spin columns (Profiti) by following the manufacturer’s instructions. […]

[1] = test system: human dermal fibroblasts (HDF); assay: IncuCyte live-cell imaging cell death, HDF; type: cell-based; settings: 50 µM (Appendix Fig. S4E)
Protocol: Cells were seeded at varying densities (1000–8000 cells per well) after initial optimisation in a 96-well tissue culture-treated plate (Thermo Fisher Scientific). Cells were incubated o/n, and the next day, inhibitors and controls diluted in cell media were added to the cells to a final volume of 200 μL per well. Cell death was measured using PI (Sigma-Aldrich). Cells were imaged with four images per well every 2 h for up to 96 h using the IncuCyte live-cell analysis system (S3, Sartorius). Cell proliferation data were analysed using Microsoft Excel by normalising confluence to control conditions. For cell killing readouts, the number of PI-positive cells was normalised to the control conditions for each timepoint.

HDFs = assay: Colony formation assay, HDF; type: cell-based, human; settings: 10 µM, 7–12 days
Protocol: Cells were seeded at low density (200–4000 cells per well) after initial optimisation in a six-well tissue culture-treated plate (Falcon). Twenty-four hours post seeding, media was replaced, and the inhibitor was added. Cells were left to grow into colonies between 7 and 12 days, depending on the cell line. For analysis, the media was removed, and the cells were fixed with 10% (w/v) formalin for 10 min. Colonies were stained with crystal violet (Sigma-Aldrich, 0.5% [w/v] in 20% [v/v] MeOH) for 10 min and washed thrice with distilled H2O. Plates were imaged using the ChemiDoc imaging system (Bio-Rad) and analysed using the ImageJ ColonyArea plugin as described previously (Guzmán et al, [2014]).

T1 sequence (Q93008 with tags, fused parts or gaps Y1757F/K1759R/D1761E/L1762V/A1766S/DEL1924-1943): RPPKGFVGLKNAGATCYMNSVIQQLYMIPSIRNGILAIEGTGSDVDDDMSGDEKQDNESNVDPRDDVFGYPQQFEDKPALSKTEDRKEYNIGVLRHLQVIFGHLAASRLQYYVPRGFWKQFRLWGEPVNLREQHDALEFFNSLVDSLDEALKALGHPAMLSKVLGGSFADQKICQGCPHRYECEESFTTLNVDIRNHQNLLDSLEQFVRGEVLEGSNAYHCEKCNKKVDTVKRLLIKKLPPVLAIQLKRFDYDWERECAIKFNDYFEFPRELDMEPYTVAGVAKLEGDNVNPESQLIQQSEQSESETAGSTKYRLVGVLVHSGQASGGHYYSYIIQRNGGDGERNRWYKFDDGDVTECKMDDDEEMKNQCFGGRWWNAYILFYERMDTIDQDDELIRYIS

With `Cc1[nH]c2ccc(C(=O)N3CCN(S(=O)(=O)c4ccc5c(c4)OCCO5)CC3)cc2c1C` [WEHI-092] the “activity of USP9X/USP24 chimera Δβ in presence of compound” value (USP9X/USP24 chimera Δβ) was “remained fully active at concentrations up to 10 µM”, the “inhibition of USP24 in cell lysates (DUB IP-MS)” value (USP24) was “not inhibited” and the “toxicity to HDFs” value [1] was “non-lethal and non-toxic”. For the same compound, the “clonogenic potential, HDF” value (HDFs) was “limited or no effects”.

— publication PMC13144739, “Global analysis of cancer cell responses to USP9X inhibition” (The EMBO Journal, 2026)
